Laboratory results taken from patent US20200010519A1, “NUCLEASE FUSIONS FOR ENHANCING GENOME EDITING BY HOMOLOGY-DIRECTED TRANSGENE INTEGRATION” (INSTITUT NATIONAL DE LA SANTE ET DE LA RECHERCHE …, priority 2017, published 2020).

Key:
[1] = tested on: JAK and PCSK genes, AAVS1 locus; assay: Indel mutation patterns, all three guide RNAs taken together, HEK293 cells; assay type: cell-based, human; settings: compared to Cas9, three guide RNAs
JAK (spacer 54) = assay: Indel mutation patterns by deep sequencing of PCR amplicons, HEK293 cells; assay type: cell-based, human

SMILES: O=c1cc(N2CCOCC2)oc2c(-c3cccc4c3sc3ccccc34)cccc12 [NU7441]
- indels with increased frequency that were deletions flanked by micro-homologies of 2 or more nucleotides [1]: 10 out of 12
- reduction of the two most frequent mutations observed with Cas9 (JAK (spacer 54)): 10 fold
